Assay results taken from patent US20240425501A1, “NOVEL BICYCLIC HETEROARYL DERIVATIVES AS SOS1:KRAS PROTEINPROTEIN INTERACTION INHIBITORS” (SATYARX PHARMA INNOVATIONS PVT LTD, priority 2021, published 2024).

Target: T1, hSOS1 enzyme / KRAS (G12C), GST-Tag, GDP-bound protein (Homo sapiens, UniProt Q07889)
T1 sequence (Q07889 564-1049 limits assumed): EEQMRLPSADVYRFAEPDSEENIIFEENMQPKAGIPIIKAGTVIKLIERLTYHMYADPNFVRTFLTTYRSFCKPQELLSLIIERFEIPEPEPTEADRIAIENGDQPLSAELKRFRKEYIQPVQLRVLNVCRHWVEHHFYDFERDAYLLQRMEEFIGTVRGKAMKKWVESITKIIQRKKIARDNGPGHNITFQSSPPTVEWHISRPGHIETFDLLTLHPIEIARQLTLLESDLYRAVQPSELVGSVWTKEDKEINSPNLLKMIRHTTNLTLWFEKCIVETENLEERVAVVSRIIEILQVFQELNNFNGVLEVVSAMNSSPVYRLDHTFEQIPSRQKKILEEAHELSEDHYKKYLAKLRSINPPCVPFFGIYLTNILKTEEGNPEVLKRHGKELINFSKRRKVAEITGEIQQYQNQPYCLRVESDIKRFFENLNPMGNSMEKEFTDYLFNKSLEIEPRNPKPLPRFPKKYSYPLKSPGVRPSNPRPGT
Assay: SOS1-mediated KRAS guanine nucleotide exchange (GEF) assay, HTRF ("On Assay")
Assay type: biochemical
Conditions: 1 μM compound
Protocol: Biochemical Assay: Measurement of SOS1-Mediated KRAS Guanine Nucleotide Exchange (GEF) Assay
This assay quantifies the HTRF-based SOS1 mediated guanine nucleotide exchange assay detecting GTP binding to KRAS (G12C), GST-Tag, GDP-bound protein. This is also referred as “On Assay”.The assay buffer composition is as follows: 10 mM HEPES pH-7, 150 mM NaCl, 5 mM MgCl2, 1 mM DTT, 0.05% BSA, 0.0025% IGEPAL CA-630 and MilliQ water. 0.5 μl of compounds diluted in assay buffer were dispensed into the respective wells of 384 black well test plate. 4.75 μl of KRAS working solution containing 100 nM KRAS (G12C), GST-Tag, GDP-bound protein GDP-loaded (Reaction biology) and 2 nM Anti GST-Tb cryptate (FRET donor, Cisbio) was added in assay buffer. The components were incubated for 10 min at 25° C.
4.75 μl of hSOS1 working solution containing 20 nM hSOS1 enzyme and 200 nM EDA-GTP-DY-647P (FRET acceptor, synthesized by Jena Bioscience (Germany), supplied as a 1 mM solution) was further added in assay buffer. 4.75 μl of inhibitor control having only 200 nM EDA-GTP-DY-647P1 component without hSOS1 working solution was added in the negative control well. The plate was short spun for few seconds and incubated for 10 min. HTRF was measured using Perkin Elmer-Nivo 5F multimode plate reader.
HTRF settings: EXCITATION FILTER—320/75 nm, EMISSION FILTER (1) —615/8 nm, EMISSION FILTER (2)—665/8 nm

Row | SMILES | inhibition at 1 µM
1 | CNCCNc1nc(N[C@H](C)c2cc(N)cc(C(F)(F)F)c2)c2cc(N3CCCC3)ncc2n1 [Example 39, (R)—N4-(1-(3-amino-5-(trifluoromethyl)phenyl)ethyl)-N2-(2-(methylamino)ethyl)-6-(pyrrolidin-1-yl)pyrido[3,4-d]pyrimidine-2,4-diamine] | ≥ 50%
2 | C[C@@H](Nc1nc(Cl)nc2cnc(N3CCOCC3)cc12)c1cc(N)cc(C(F)(F)F)c1 [Example 19, (R)—N-(1-(3-amino-5-(trifluoromethyl)phenyl)ethyl)-2-chloro-6-morpholinopyrido[3,4-d]pyrimidin-4-amine] | ≥ 50%
3 | CC(C)N1CCN(c2cc3c(N[C@H](C)c4cc(N)cc(C(F)(F)F)c4)nc(Cl)nc3cn2)CC1 [Example 25, (R)—N-(1-(3-amino-5-(trifluoromethyl)phenyl)ethyl)-2-chloro-6-(4-isopropylpiperazin-1-yl)pyrido[3,4-d]pyrimidin-4-amine] | ≥ 50%
4 | COC1CCN(c2cc3c(N[C@H](C)c4cccc(C(F)F)c4F)nc(Cl)nc3cn2)CC1 [Example 60, (R)-2-chloro-N-(1-(3-(difluoromethyl)-2-fluorophenyl)ethyl)-6-(4-methoxypiperidin-1-yl)pyrido[3,4-d]pyrimidin-4-amine] | ≥ 50%
5 | COC1CCN(c2cc3c(N[C@H](C)c4cc(N)cc(C(F)(F)F)c4)nc(Cl)nc3cn2)CC1 [Example 20, (R)—N-(1-(3-amino-5-(trifluoromethyl)phenyl)ethyl)-2-chloro-6-(4-methoxypiperidin-1-yl)pyrido[3,4-d]pyrimidin-4-amine] | ≥ 50%
6 | C[C@@H](Nc1nc(N(C)C)nc2cnc(N3CCCC3)cc12)c1cc(N)cc(C(F)(F)F)c1 [Example 2, N4—(R)-(1-(3-amino-5-(trifluoromethyl)phenyl)ethyl)-N2,N2-dimethyl-6-(pyrrolidin-1-yl)pyrido[3,4-d]pyrimidine-2,4-diamine] | ≥ 50%
7 | C[C@@H](Nc1nc(N2CCC2)nc2cnc(C3CCOCC3)cc12)c1cc(N)cc(C(F)(F)F)c1 [Example 67, (R)—N-(1-(3-amino-5-(trifluoromethyl)phenyl)ethyl)-2-(azetidin-1-yl)-6-(tetrahydro-2H-pyran-4-yl)pyrido[3,4-d]pyrimidin-4-amine] | ≥ 50%
8 | CC(C)Nc1nc(N[C@H](C)c2cc(N)cc(C(F)(F)F)c2)c2cc(N3CCOCC3)ncc2n1 [Example 38, (R)—N4-(1-(3-amino-5-(trifluoromethyl)phenyl)ethyl)-N2-isopropyl-6-morpholinopyrido[3,4-d]pyrimidine-2,4-diamine] | ≥ 50%
9 | C[C@@H](Nc1nc(N2CCC2)nc2cnc(N3CCN(C4CCC4)CC3)cc12)c1cc(N)cc(C(F)(F)F)c1 [Example 52, (R)—N-(1-(3-amino-5-(trifluoromethyl)phenyl)ethyl)-2-(azetidin-1-yl)-6-(4-cyclobutylpiperazin-1-yl)pyrido[3,4-d]pyrimidin-4-amine] | ≥ 50%
10 | C[C@@H](Nc1nc(N(C)CCO)nc2cnc(N3CCCC3)cc12)c1cc(N)cc(C(F)(F)F)c1 [Example 13, (R)-2-((4-((1-(3-amino-5-(trifluoromethyl)phenyl)ethyl)amino)-6-(pyrrolidin-1-yl)pyrido[3,4-d]pyrimidin-2-yl)(methyl)amino)ethan-1-ol] | ≥ 50%
11 | C[C@@H](Nc1nc(N2CCC2)nc2cnc(C3CCN(C)CC3)cc12)c1cc(N)cc(C(F)(F)F)c1 [Example 68, (R)—N-(1-(3-amino-5-(trifluoromethyl)phenyl)ethyl)-2-(azetidin-1-yl)-6-(1-methylpiperidin-4-yl)pyrido[3,4-d]pyrimidin-4-amine] | ≥ 50%
12 | C[C@@H](Nc1nc(N(C)C)nc2cnc(N3CCN(C)CC3)cc12)c1cc(N)cc(C(F)(F)F)c1 [Example 45, (R)—N4-(1-(3-amino-5-(trifluoromethyl)phenyl)ethyl)-N2,N2-dimethyl-6-(4-methylpiperazin-1-yl)pyrido[3,4-d]pyrimidine-2,4-diamine] | ≥ 50%
13 | C[C@@H](Nc1nc(Cl)nc2ncc(N3CCN(C)CC3)cc12)c1cc(N)cc(C(F)(F)F)c1 [Example 82, (R)—N-(1-(3-amino-5-(trifluoromethyl)phenyl)ethyl)-2-chloro-6-(4-methylpiperazin-1-yl)pyrido[2,3-d]pyrimidin-4-amine] | ≥ 50%
14 | CC(C)Nc1cc2c(N[C@H](C)c3cc(N)cc(C(F)(F)F)c3)nc(N3CCCC3)nc2cn1 [Example 55, (R)—N4-(1-(3-amino-5-(trifluoromethyl)phenyl)ethyl)-N6-isopropyl-2-(pyrrolidin-1-yl)pyrido[3,4-d]pyrimidine-4,6-diamine] | ≥ 50%
15 | C[C@@H](Nc1nc(NCCO)nc2cnc(N3CCCC3)cc12)c1cc(N)cc(C(F)(F)F)c1 [Example 12, (R)-2-((4-((1-(3-amino-5-(trifluoromethyl)phenyl)ethyl)amino)-6-(pyrrolidin-1-yl)pyrido[3,4-d]pyrimidin-2-yl)amino)ethan-1-ol] | ≥ 50%
16 | CCN1CCN(c2ccc3nc(Cl)nc(N[C@H](C)c4cc(N)cc(C(F)(F)F)c4)c3c2)CC1 [Example 73, (R)—N-(1-(3-amino-5-(trifluoromethyl)phenyl)ethyl)-2-chloro-6-(4-ethylpiperazin-1-yl)quinazolin-4-amine] | ≥ 50%
17 | CNc1nc(N[C@H](C)c2cc(N)cc(C(F)(F)F)c2)c2cc(N3CCOCC3)ncc2n1 [Example 18, (R)—N4-(1-(3-amino-5-(trifluoromethyl)phenyl)ethyl)-N2-methyl-6-morpholinopyrido[3,4-d]pyrimidine-2,4-diamine] | ≥ 50%
18 | C[C@@H](Nc1nc(N(C)C)nc2cnc(N3CCC(F)CC3)cc12)c1cc(N)cc(C(F)(F)F)c1 [Example 43, (R)—N4-(1-(3-amino-5-(trifluoromethyl)phenyl)ethyl)-6-(4-fluoropiperidin-1-yl)-N2,N2-dimethylpyrido[3,4-d]pyrimidine-2,4-diamine] | ≥ 50%
19 | C[C@@H](Nc1nc(Cl)nc2cnc(N3CCC(F)(F)CC3)cc12)c1cc(N)cc(C(F)(F)F)c1 [Example 21, (R)—N-(1-(3-amino-5-(trifluoromethyl)phenyl)ethyl)-2-chloro-6-(4,4-difluoropiperidin-1-yl)pyrido[3,4-d]pyrimidin-4-amine] | ≥ 50%
20 | CC1CCN(c2cc3c(N[C@H](C)c4cc(N)cc(C(F)(F)F)c4)nc(N4CCC4)nc3cn2)CC1 [Example 47, (R)—N-(1-(3-amino-5-(trifluoromethyl)phenyl)ethyl)-2-(azetidin-1-yl)-6-(4-methylpiperidin-1-yl)pyrido[3,4-d]pyrimidin-4-amine] | < 50%
21 | C[C@@H](Nc1nc(N(C)C)nc2cnc(N3CCOCC3)cc12)c1cc(N)cc(C(F)(F)F)c1 [Example 8, (R)—N4-(1-(3-amino-5-(trifluoromethyl)phenyl)ethyl)-N2,N2-dimethyl-6-morpholinopyrido[3,4-d]pyrimidine-2,4-diamine] | ≥ 50%
22 | CCN1CCN(c2cnc3cc(Cl)nc(N[C@H](C)c4cc(N)cc(C(F)(F)F)c4)c3c2)CC1 [Example 88, (R)—N-(1-(3-amino-5-(trifluoromethyl)phenyl)ethyl)-7-chloro-3-(4-ethylpiperazin-1-yl)-1,6-naphthyridin-5-amine] | ≥ 50%
